Assay results as given in US12570642B2, “GLP-IR modulating compounds” (Gilead Sciences, Inc., priority 2021, dated 2026).

target: GLP-1R (Homo sapiens, UniProt P43220); test: GLP-1R Activation - cAMP Assay; type: cell-based; conditions: cAMP increase in CHO cells stably expressing GLP-1R; each compound run on one of the two cAMP assays (Assay 1 or Assay 2, not specified)
Outline: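 cAMP rise read by HTRF after 30 min agonist exposure (10-point titration, 37 °C) in HBSS/20 mM Hepes/0.1% BSA, following 1 h pre-incubation. Cells: stable GLP-1R CHO line, 1,000/well, seeded overnight. Sigmoidal fit of response vs log concentration gives EC50.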

Chain of GLP-1R (P43220 24-463): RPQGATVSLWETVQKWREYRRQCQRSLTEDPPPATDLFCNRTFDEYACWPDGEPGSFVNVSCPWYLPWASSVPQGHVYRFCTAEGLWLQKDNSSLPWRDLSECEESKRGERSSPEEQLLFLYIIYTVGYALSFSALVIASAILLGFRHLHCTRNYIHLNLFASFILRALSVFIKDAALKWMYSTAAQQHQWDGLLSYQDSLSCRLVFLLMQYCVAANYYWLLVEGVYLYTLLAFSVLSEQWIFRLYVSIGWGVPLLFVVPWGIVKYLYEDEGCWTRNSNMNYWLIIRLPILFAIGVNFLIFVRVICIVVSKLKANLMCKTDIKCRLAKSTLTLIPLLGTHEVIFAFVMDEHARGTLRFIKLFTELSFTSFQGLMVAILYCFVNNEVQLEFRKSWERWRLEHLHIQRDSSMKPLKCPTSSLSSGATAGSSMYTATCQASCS

| Compound | EC50 [nM] |
| --- | --- |
| CC1(C)COC[C@H]1n1c(Cc2cc(F)c(-c3cccc(OCc4ccc(C#N)cc4F)n3)cc2F)nc2ccc(C(=O)O)nc21 [Example 439, (S)-2-(4-(6-((4-cyano-2-fluorobenzyl)oxy)pyridin-2-yl)-2,5-difluorobenzyl)-3-(4,4-dimethyltetrahydrofuran-3-yl)-3H-imidazo[4,5-b]pyridine-5-carboxylic acid] | 0.171 |
| CC1(C)COC[C@H]1n1c(Cc2cc(F)c(-c3cccc(OCc4ccc(C#N)cc4)n3)cc2F)nc2ccc(C(=O)O)nc21 [Example 440, (S)-2-(4-(6-((4-cyanobenzyl)oxy)pyridin-2-yl)-2,5-difluorobenzyl)-3-(4,4-dimethyltetrahydrofuran-3-yl)-3H-imidazo[4,5-b]pyridine-5-carboxylic acid] | 0.956 |
| CC1(C)COC[C@H]1n1c(Cc2cc(F)c(-c3ccc(F)c(OCc4ccc(Cl)cc4)n3)cc2F)nc2c(Cl)cc(C(=O)O)cc21 [Example 441, (S)-4-chloro-2-(4-(6-((4-chlorobenzyl)oxy)-5-fluoropyridin-2-yl)-2,5-difluorobenzyl)-1-(4,4-dimethyltetrahydrofuran-3-yl)-1H-benzo[d]imidazole-6-carboxylic acid] | 0.722 |
| Cn1cc(-c2ccc(COc3cccc(-c4cc(F)c(Cc5nc6ccc(C(=O)O)cc6n5[C@@H]5COCC5(C)C)cc4F)n3)c(F)c2)nn1 [Example 442, (S)-2-(2,5-difluoro-4-(6-((2-fluoro-4-(1-methyl-1H-1,2,3-triazol-4-yl)benzyl)oxy)pyridin-2-yl)benzyl)-1-(4,4-dimethyltetrahydrofuran-3-yl)-1H-benzo[d]imidazole-6-carboxylic acid] | 0.042 |
| CC1(C)COC[C@H]1n1c(Cc2cc(F)c(-c3cccc(OCc4ccc(-c5cnn(C(F)F)c5)cc4F)n3)cc2F)nc2ccc(C(=O)O)cc21 [Example 443, (S)-2-(4-(6-((4-(1-(difluoromethyl)-1H-pyrazol-4-yl)-2-fluorobenzyl)oxy)pyridin-2-yl)-2,5-difluorobenzyl)-1-(4,4-dimethyltetrahydrofuran-3-yl)-1H-benzo[d]imidazole-6-carboxylic acid] | 0.21 |
| Cc1ncc(-c2ccc(COc3cccc(-c4cc(F)c(Cc5nc6ccc(C(=O)O)cc6n5[C@@H]5COCC5(C)C)cc4F)n3)c(F)c2)s1 [Example 444, (S)-2-(2,5-difluoro-4-(6-((2-fluoro-4-(2-methylthiazol-5-yl)benzyl)oxy)pyridin-2-yl)benzyl)-1-(4,4-dimethyltetrahydrofuran-3-yl)-1H-benzo[d]imidazole-6-carboxylic acid] | 0.365 |
| Cc1ncc(-c2ccc(COc3cccc(-c4cc(F)c(Cc5nc6ccc(C(=O)O)cc6n5[C@@H]5COCC5(C)C)cc4F)n3)c(F)c2)o1 [Example 445, (S)-2-(2,5-difluoro-4-(6-((2-fluoro-4-(2-methyloxazol-5-yl)benzyl)oxy)pyridin-2-yl)benzyl)-1-(4,4-dimethyltetrahydrofuran-3-yl)-1H-benzo[d]imidazole-6-carboxylic acid] | 0.279 |
| CC1(C)COC[C@H]1n1c(Cc2cc(F)c(-c3cccc(OCc4ccccc4C#N)n3)cc2F)nc2ccc(C(=O)O)cc21 [Example 446, (S)-2-(4-(6-((2-cyanobenzyl)oxy)pyridin-2-yl)-2,5-difluorobenzyl)-1-(4,4-dimethyltetrahydrofuran-3-yl)-1H-benzo[d]imidazole-6-carboxylic acid] | 0.2 |
| CC1(C)COC[C@H]1n1c(Cc2cc(F)c(-c3cc(C(F)F)cc(OCc4ccc(Cl)cc4F)n3)cc2F)nc2ccc(C(=O)O)cc21 [Example 447, (S)-2-(4-(6-((4-chloro-2-fluorobenzyl)oxy)-4-(difluoromethyl)pyridin-2-yl)-2,5-difluorobenzyl)-1-(4,4-dimethyltetrahydrofuran-3-yl)-1H-benzo[d]imidazole-6-carboxylic acid] | 1.39 |
| CC1(C)COC[C@H]1n1c(Cc2cc(F)c(-c3cccc(OCc4ccc(-n5cncn5)cc4)n3)cc2F)nc2ccc(C(=O)O)cc21 [Example 448, (S)-2-(4-(6-((4-(1H-1,2,4-triazol-1-yl)benzyl)oxy)pyridin-2-yl)-2,5-difluorobenzyl)-1-(4,4-dimethyltetrahydrofuran-3-yl)-1H-benzo[d]imidazole-6-carboxylic acid] | 0.352 |
| CC1(C)COC[C@H]1n1c(Cc2cc(F)c(-c3cccc(OCc4ccc(Cl)cc4C#N)n3)cc2F)nc2ccc(C(=O)O)cc21 [Example 449, (S)-2-(4-(6-((4-chloro-2-cyanobenzyl)oxy)pyridin-2-yl)-2,5-difluorobenzyl)-1-(4,4-dimethyltetrahydrofuran-3-yl)-1H-benzo[d]imidazole-6-carboxylic acid] | 0.021 |
| Cc1cc(COc2cccc(-c3cc(F)c(Cc4nc5ccc(C(=O)O)cc5n4[C@@H]4COCC4(C)C)cc3F)n2)c(F)cc1Cl [Example 450, (S)-2-(4-(6-((4-chloro-2-fluoro-5-methylbenzyl)oxy)pyridin-2-yl)-2,5-difluorobenzyl)-1-(4,4-dimethyltetrahydrofuran-3-yl)-1H-benzo[d]imidazole-6-carboxylic acid] | 1.04 |
| CC1(C)COC[C@H]1n1c(Cc2cc(F)c(-c3cccc(OCc4ccc(F)c(F)c4F)n3)cc2F)nc2ccc(C(=O)O)cc21 [Example 451, (S)-2-(2,5-difluoro-4-(6-((2,3,4-trifluorobenzyl)oxy)pyridin-2-yl)benzyl)-1-(4,4-dimethyltetrahydrofuran-3-yl)-1H-benzo[d]imidazole-6-carboxylic acid] | 0.621 |
| Cc1ccc(COc2cccc(-c3cc(F)c(Cc4nc5ccc(C(=O)O)cc5n4[C@@H]4COCC4(C)C)cc3F)n2)cc1Cl [Example 452, (S)-2-(4-(6-((3-chloro-4-methylbenzyl)oxy)pyridin-2-yl)-2,5-difluorobenzyl)-1-(4,4-dimethyltetrahydrofuran-3-yl)-1H-benzo[d]imidazole-6-carboxylic acid] | 0.564 |
| CC1(C)COC[C@H]1n1c(Cc2cc(F)c(-c3cccc(OCc4c(F)cc(Cl)cc4F)n3)cc2F)nc2ccc(C(=O)O)cc21 [Example 453, (S)-2-(4-(6-((4-chloro-2,6-difluorobenzyl)oxy)pyridin-2-yl)-2,5-difluorobenzyl)-1-(4,4-dimethyltetrahydrofuran-3-yl)-1H-benzo[d]imidazole-6-carboxylic acid] | 0.527 |
| CC1(C)COC[C@H]1n1c(Cc2cc(F)c(-c3cccc(OCc4cc(F)c(F)cc4Cl)n3)cc2F)nc2ccc(C(=O)O)cc21 [Example 454, (S)-2-(4-(6-((2-chloro-4,5-difluorobenzyl)oxy)pyridin-2-yl)-2,5-difluorobenzyl)-1-(4,4-dimethyltetrahydrofuran-3-yl)-1H-benzo[d]imidazole-6-carboxylic acid] | 0.477 |
| CC1(C)COC[C@H]1n1c(Cc2cc(F)c(-c3cccc(OCc4cc(F)c(F)cc4F)n3)cc2F)nc2ccc(C(=O)O)cc21 [Example 455, (S)-2-(2,5-difluoro-4-(6-((2,4,5-trifluorobenzyl)oxy)pyridin-2-yl)benzyl)-1-(4,4-dimethyltetrahydrofuran-3-yl)-1H-benzo[d]imidazole-6-carboxylic acid] | 0.126 |
| Cc1cc(F)c(COc2cccc(-c3cc(F)c(Cc4nc5ccc(C(=O)O)cc5n4[C@@H]4COCC4(C)C)cc3F)n2)cc1F [Example 456, (S)-2-(4-(6-((2,5-difluoro-4-methylbenzyl)oxy)pyridin-2-yl)-2,5-difluorobenzyl)-1-(4,4-dimethyltetrahydrofuran-3-yl)-1H-benzo[d]imidazole-6-carboxylic acid] | 0.332 |
| CC1(C)COC[C@H]1n1c(Cc2cc(F)c(-c3cccc(OCc4ccc(F)c(F)c4)n3)cc2F)nc2ccc(C(=O)O)cc21 [Example 457, (S)-2-(4-(6-((3,4-difluorobenzyl)oxy)pyridin-2-yl)-2,5-difluorobenzyl)-1-(4,4-dimethyltetrahydrofuran-3-yl)-1H-benzo[d]imidazole-6-carboxylic acid] | 0.157 |
| CC1(C)COC[C@H]1n1c(Cc2cc(F)c(-c3cccc(OCc4c(F)cc(F)cc4F)n3)cc2F)nc2ccc(C(=O)O)cc21 [Example 458, (S)-2-(2,5-difluoro-4-(6-((2,4,6-trifluorobenzyl)oxy)pyridin-2-yl)benzyl)-1-(4,4-dimethyltetrahydrofuran-3-yl)-1H-benzo[d]imidazole-6-carboxylic acid] | 0.315 |
| Cc1cc(F)c(COc2cccc(-c3cc(F)c(Cc4nc5ccc(C(=O)O)cc5n4[C@@H]4COCC4(C)C)cc3F)n2)cc1Cl [Example 459, (S)-2-(4-(6-((5-chloro-2-fluoro-4-methylbenzyl)oxy)pyridin-2-yl)-2,5-difluorobenzyl)-1-(4,4-dimethyltetrahydrofuran-3-yl)-1H-benzo[d]imidazole-6-carboxylic acid] | 0.8 |
| CC1(C)COC[C@H]1n1c(Cc2cc(F)c(-c3cccc(OCc4ccc(C#N)cc4Cl)n3)cc2F)nc2ccc(C(=O)O)cc21 [Example 460, (S)-2-(4-(6-((2-chloro-4-cyanobenzyl)oxy)pyridin-2-yl)-2,5-difluorobenzyl)-1-(4,4-dimethyltetrahydrofuran-3-yl)-1H-benzo[d]imidazole-6-carboxylic acid] | 0.096 |
| COc1cc(C#N)ccc1COc1cccc(-c2cc(F)c(Cc3nc4ccc(C(=O)O)cc4n3[C@@H]3COCC3(C)C)cc2F)n1 [Example 461, (S)-2-(4-(6-((4-cyano-2-methoxybenzyl)oxy)pyridin-2-yl)-2,5-difluorobenzyl)-1-(4,4-dimethyltetrahydrofuran-3-yl)-1H-benzo[d]imidazole-6-carboxylic acid] | 0.067 |
| COc1cc(Cl)ccc1COc1cccc(-c2cc(F)c(Cc3nc4ccc(C(=O)O)cc4n3[C@@H]3COCC3(C)C)cc2F)n1 [Example 462, (S)-2-(4-(6-((4-chloro-2-methoxybenzyl)oxy)pyridin-2-yl)-2,5-difluorobenzyl)-1-(4,4-dimethyltetrahydrofuran-3-yl)-1H-benzo[d]imidazole-6-carboxylic acid] | 0.141 |
